According to PMC7044277 (Nature Communications, 2020):
Values joined by “and” are separate entries in the source; they are usually repeats but may differ in a detail not shown here. Equal entries are not always repeated.

Legend:
Type in all cases: cell-based
[1] = target: T1, 320 non-olfactory GPCRs (Homo sapiens, UniProt Q86SM8); conditions: receptor MRGPRE; replicate values, Fig_4g
T1 construct: expressed in transfected cells; host or cells: HTLA cells

[2] = target: 320 non-olfactory GPCRs (Homo sapiens, UniProt P25025)
320 non-olfactory GPCRs (Homo sapiens, UniProt P25025), sequence (P25025 whole entry): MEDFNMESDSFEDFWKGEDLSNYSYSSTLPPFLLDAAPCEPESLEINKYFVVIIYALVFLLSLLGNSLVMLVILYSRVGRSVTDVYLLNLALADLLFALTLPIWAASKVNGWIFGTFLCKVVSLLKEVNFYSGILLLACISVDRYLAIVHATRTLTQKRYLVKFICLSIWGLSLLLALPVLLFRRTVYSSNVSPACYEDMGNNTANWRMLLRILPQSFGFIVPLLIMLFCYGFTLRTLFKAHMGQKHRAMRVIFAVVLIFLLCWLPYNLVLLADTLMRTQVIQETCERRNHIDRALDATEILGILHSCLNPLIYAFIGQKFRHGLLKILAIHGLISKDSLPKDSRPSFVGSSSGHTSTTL

[3] = target: T2, 320 non-olfactory GPCRs (Homo sapiens, UniProt Q99705); conditions: receptor MCHR1R; replicate values, Fig_4g
T2 construct: expressed in transfected cells; host or cells: HTLA cells
T2 sequence (Q99705 whole entry): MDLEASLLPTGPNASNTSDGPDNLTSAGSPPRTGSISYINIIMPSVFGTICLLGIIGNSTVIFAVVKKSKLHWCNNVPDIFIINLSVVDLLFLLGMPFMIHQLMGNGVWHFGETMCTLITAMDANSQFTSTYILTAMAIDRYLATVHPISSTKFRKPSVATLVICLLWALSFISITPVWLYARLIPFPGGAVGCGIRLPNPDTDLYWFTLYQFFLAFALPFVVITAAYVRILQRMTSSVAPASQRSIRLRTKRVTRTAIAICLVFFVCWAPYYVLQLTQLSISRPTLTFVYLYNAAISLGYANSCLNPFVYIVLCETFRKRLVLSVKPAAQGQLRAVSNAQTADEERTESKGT

[4] = target: T3, 320 non-olfactory GPCRs (Homo sapiens, UniProt P37288)
T3 construct: expressed in transfected cells; host or cells: HTLA cells
T3 sequence (P37288 whole entry): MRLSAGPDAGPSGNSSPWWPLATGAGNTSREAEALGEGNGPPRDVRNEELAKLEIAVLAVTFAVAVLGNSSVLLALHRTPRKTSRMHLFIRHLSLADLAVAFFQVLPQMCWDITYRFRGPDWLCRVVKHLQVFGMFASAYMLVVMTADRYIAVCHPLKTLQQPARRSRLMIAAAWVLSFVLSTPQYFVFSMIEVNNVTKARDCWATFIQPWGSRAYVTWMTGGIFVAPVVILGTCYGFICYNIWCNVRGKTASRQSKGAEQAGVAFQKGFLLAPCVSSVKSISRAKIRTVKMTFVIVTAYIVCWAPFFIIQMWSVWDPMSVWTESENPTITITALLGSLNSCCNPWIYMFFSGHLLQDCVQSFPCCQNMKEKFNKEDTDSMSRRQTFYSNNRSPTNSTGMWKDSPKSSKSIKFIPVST
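For Fold of Basal in this document: compound tested at 1 µM final concentration.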
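For GPCRome agonism screen response in this document: fold over basal response of each receptor without drug.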

T1 sequence (Q86SM8 whole entry): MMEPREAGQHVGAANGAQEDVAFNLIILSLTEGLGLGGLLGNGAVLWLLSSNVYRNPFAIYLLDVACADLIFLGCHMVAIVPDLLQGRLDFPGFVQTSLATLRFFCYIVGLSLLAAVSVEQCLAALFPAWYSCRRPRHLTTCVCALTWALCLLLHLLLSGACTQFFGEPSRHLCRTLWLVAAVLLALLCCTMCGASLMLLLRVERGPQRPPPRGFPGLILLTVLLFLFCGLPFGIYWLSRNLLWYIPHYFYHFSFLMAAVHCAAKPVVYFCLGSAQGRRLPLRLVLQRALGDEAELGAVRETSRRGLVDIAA

In the case of `CCOc1cccc2cc(C(C)NCC3(O)CCCCC3)oc12` (stereo not shown) [O4LE6], the “GPCRome agonism screen response” value [1] is reported as 0.6882 and 1.103 and 0.7685 and 1.012, the “Fold of Basal” value [2] is reported as 1.166 and 1.131 and 0.9959 and 1.015 and the “GPCRome agonism screen response” value [3] is reported as 0.7534 and 1.295 and 1.833 and 1.448. For the same compound, the “Fold of Basal” value [4] was 0.5721 and 0.4612 and 0.3897 and 0.4481.
